Test results reported in patent publication US20250368627A1, “PYRAZOLESULFONAMIDES AS ANTITUMOR AGENTS” (Peloton Therapeutics, Inc., a fully owned subsidiary of …, priority 2019, published 2025).

What was measured:
[1] = target: T1, DDB1DB/DCAF15 and RBM39 R1R2 complex (Homo sapiens, UniProt Q14498+Q66K64); test: DCAF15 RBM39 Complex Formation Assay (FRET); type: binding; settings: FRET ratio Em 665/Em 615, incubated overnight at 4° C.
T1 construct: Amino acids 150 to 331 of RBM39 were cloned into pGEX4T3; GST (from vector pGEX4T3); TEV cleavage site (N); made in house; host or cells: DDB1DB/His-DCAF15: baculovirus/Sf9 co-expression; RBM39 R1R2: E. coli (pGEX4T3)
T1 sequence (Q66K64 whole entry, the tested form may be a part): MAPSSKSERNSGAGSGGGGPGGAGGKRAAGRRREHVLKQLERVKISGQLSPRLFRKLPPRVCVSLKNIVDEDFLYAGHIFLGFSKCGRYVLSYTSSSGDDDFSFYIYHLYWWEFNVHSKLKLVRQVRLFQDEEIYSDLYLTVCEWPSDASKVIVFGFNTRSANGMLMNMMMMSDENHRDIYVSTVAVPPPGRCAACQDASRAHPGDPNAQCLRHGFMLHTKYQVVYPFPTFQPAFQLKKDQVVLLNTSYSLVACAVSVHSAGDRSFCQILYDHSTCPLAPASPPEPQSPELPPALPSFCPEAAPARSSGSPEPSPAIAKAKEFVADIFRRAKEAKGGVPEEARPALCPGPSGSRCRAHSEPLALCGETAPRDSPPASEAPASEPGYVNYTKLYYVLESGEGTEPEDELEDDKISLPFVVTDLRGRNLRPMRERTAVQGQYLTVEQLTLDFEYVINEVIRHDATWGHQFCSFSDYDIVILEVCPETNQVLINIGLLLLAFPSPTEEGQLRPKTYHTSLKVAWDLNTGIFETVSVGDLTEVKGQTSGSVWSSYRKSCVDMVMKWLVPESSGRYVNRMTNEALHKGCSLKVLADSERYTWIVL
T1 sequence (Q14498 150-331): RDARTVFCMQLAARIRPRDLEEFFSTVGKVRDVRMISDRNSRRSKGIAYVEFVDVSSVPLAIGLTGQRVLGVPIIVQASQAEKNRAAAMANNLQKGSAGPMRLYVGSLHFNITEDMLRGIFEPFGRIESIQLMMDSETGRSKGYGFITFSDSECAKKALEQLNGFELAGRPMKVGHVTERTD
T1 sequence (Q16531 with tags, fused parts or gaps DEL396-708 partner): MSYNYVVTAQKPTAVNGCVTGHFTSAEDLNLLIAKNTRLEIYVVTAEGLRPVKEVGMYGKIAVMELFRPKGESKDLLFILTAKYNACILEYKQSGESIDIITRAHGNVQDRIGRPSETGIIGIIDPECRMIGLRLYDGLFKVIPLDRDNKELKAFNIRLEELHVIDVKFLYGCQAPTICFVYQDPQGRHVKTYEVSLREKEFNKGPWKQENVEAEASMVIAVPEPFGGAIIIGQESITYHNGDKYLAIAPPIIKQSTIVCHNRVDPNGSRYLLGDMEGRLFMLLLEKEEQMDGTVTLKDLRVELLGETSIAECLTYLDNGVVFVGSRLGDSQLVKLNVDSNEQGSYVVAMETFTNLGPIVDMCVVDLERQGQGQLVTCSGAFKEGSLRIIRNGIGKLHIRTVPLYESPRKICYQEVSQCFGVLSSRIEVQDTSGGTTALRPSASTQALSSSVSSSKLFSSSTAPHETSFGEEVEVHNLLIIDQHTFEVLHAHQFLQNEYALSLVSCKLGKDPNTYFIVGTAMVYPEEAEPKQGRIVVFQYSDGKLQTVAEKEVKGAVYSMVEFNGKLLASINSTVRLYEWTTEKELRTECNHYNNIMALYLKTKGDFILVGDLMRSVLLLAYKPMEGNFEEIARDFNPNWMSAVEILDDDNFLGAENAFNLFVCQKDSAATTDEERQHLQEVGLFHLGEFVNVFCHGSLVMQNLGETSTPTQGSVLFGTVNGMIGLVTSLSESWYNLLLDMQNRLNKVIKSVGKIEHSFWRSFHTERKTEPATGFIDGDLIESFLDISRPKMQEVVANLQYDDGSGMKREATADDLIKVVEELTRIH
In short: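 Ternary complex formation read by TR-FRET (Em 665/615, excitation 340 nm) after overnight incubation at 4° C of 20 nM baculovirus DDB1DB/His-DCAF15 and 50 nM E. coli RBM39 RRM1-RRM2 FLAG fragment with 14-point, 3-fold compound dilutions from 1 μM; EC50 from 4-parameter fit.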

[2] = system: HCT116 human colorectal carcinoma cells; test: CellTiter-Glo Luminescent Cell Viability Assay; type: cell-based; settings: HCT-116, 72 h, 3 days
In short: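 HCT116 cells were exposed for 3 days to compound in triplicate at final concentrations of 5 to 0.0002 […] (1:3 dilutions). Viability was read by CellTiter-Glo luminescence, and IC50 values were calculated.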

Compound	IC50 [1] [nM]	EC50 [2] [nM]
CC(C)(CO)n1ncc(S(=O)(=O)Nc2ccc(F)c3c(C#N)c[nH]c23)c1Cl [Compound 245, 5-chloro-N-(3-cyano-4-fluoro-1H-indol-7-yl)-1-(2-hydroxy-1,1-dimethyl-ethyl)pyrazole-4-sulfonamide]	< 250	250 to 1000
Cc1ccc(NS(=O)(=O)c2cnn(C3CCC3)c2)c2[nH]cc(C#N)c12 [Compound 61, N-(3-cyano-4-methyl-1H-indol-7-yl)-1-cyclobutyl-pyrazole-4-sulfonamide]	< 250	250 to 1000
Cn1cc(S(=O)(=O)Nc2ccc(Cl)c3c(Cl)c[nH]c23)cn1 [Compound 81, N-(3,4-dichloro-1H-indol-7-yl)-1-methyl-pyrazole-4-sulfonamide]	< 250	< 250
N#Cc1c[nH]c2c(NS(=O)(=O)c3cnn([C@H](CO)CF)c3)ccc(Cl)c12 [Compound 311, N-(4-chloro-3-cyano-1H-indol-7-yl)-1-[(1R)-1-(fluoromethyl)-2-hydroxy-ethyl]pyrazole-4-sulfonamide]	< 250	250 to 1000
O=S(=O)(Nc1cccc2c(Cl)c[nH]c12)c1cnn(CCF)c1 [Compound 35, N-(3-chloro-1H-indol-7-yl)-1-(2-fluoroethyl)pyrazole-4-sulfonamide]	< 250	250 to 1000
Cc1ccc(NS(=O)(=O)c2cnn(C3CCC(F)(F)CC3)c2)c2[nH]cc(C#N)c12 [Compound 86, N-(3-cyano-4-methyl-1H-indol-7-yl)-1-(4,4-difluorocyclohexyl)pyrazole-4-sulfonamide]	< 250	250 to 1000
C[C@@H](CO)n1cc(S(=O)(=O)Nc2ccc(Cl)c3c(C#N)c[nH]c23)cn1 [Compound 266, N-(4-chloro-3-cyano-1H-indol-7-yl)-1-[(1S)-2-hydroxy-1-methyl-ethyl]pyrazole-4-sulfonamide]	< 250	250 to 1000
Cc1ccc(NS(=O)(=O)c2cnn(C3CC(F)C3)c2)c2[nH]cc(C#N)c12 (centres unmarked) [Compound 111, N-(3-cyano-4-methyl-1H-indol-7-yl)-1-(3-fluorocyclobutyl)pyrazole-4-sulfonamide]	< 250	250 to 1000
CC(F)(CO)n1cc(S(=O)(=O)Nc2ccc(F)c3c(C#N)c[nH]c23)cn1 (centres unmarked) [Compound 294, N-(3-cyano-4-fluoro-1H-indol-7-yl)-1-(1-fluoro-2-hydroxy-1-methyl-ethyl)pyrazole-4-sulfonamide]	< 250	> 1000
Cc1ccc(NS(=O)(=O)c2cnn(CCC#N)c2)c2[nH]cc(C#N)c12 [Compound 77, 1-(2-Cyanoethyl)-N-(3-cyano-4-methyl-1H-indol-7-yl)pyrazole-4-sulfonamide]	< 250	< 250
Cc1ccc(NS(=O)(=O)c2cnn(CCS(C)(=O)=O)c2)c2[nH]cc(C#N)c12 [Compound 67, N-(3-cyano-4-methyl-1H-indol-7-yl)-1-(2-methylsulfonylethyl)pyrazole-4-sulfonamide]	< 250	250 to 1000
Cc1ccc(NS(=O)(=O)c2cnn(C)c2)c2[nH]cc(F)c12 [Compound 126, N-(3-fluoro-4-methyl-1H-indol-7-yl)-1-methyl-pyrazole-4-sulfonamide]	250 to 1000	250 to 1000
CS(=O)(=O)Cn1cc(S(=O)(=O)Nc2ccc(Cl)c3c(Cl)c[nH]c23)cn1 [Compound 181, N-(3,4-dichloro-1H-indol-7-yl)-1-(methylsulfonylmethyl)pyrazole-4-sulfonamide]	< 250	< 250
N#Cc1cc(C(F)(F)F)ccc1-n1cc(S(=O)(=O)Nc2cccc3c(Cl)c[nH]c23)cn1 [Compound 22, N-(3-chloro-1H-indol-7-yl)-1-[2-cyano-4-(trifluoromethyl)phenyl]pyrazole-4-sulfonamide]	> 1000	> 1000
N#Cc1c[nH]c2c(NS(=O)(=O)c3cnn(CCCO)c3)ccc(F)c12 [Compound 211, N-(3-cyano-4-fluoro-1H-indol-7-yl)-1-(3-hydroxypropyl)pyrazole-4-sulfonamide]	< 250	250 to 1000
N#Cc1c[nH]c2c(NS(=O)(=O)c3cnn(CF)c3)ccc(Cl)c12 [Compound 124, N-(4-chloro-3-cyano-1H-indol-7-yl)-1-(fluoromethyl)pyrazole-4-sulfonamide]	< 250	< 250
O=S(=O)(Nc1cccc2c(Cl)c[nH]c12)c1cnn(-c2ncc(Cl)cc2F)c1 [Compound 15, 1-(5-chloro-3-fluoro-2-pyridyl)-N-(3-chloro-1H-indol-7-yl)pyrazole-4-sulfonamide]	< 250	> 1000
Cc1ccc(NS(=O)(=O)c2cnn(C3CCNC3=O)c2)c2[nH]cc(C#N)c12 (centres unmarked) [Compound 146, N-(3-cyano-4-methyl-1H-indol-7-yl)-1-(2-oxopyrrolidin-3-yl)pyrazole-4-sulfonamide]	< 250	> 1000

Results, then the molecule that gave them:

IC50 [1] [nM]	EC50 [2] [nM]	Compound
< 250	250 to 1000	N#Cc1c[nH]c2c(NS(=O)(=O)c3cnn(C45CC(C4)C5)c3)ccc(F)c12 [Compound 219, 1-(3-bicyclo[1.1.1]pentanyl)-N-(3-cyano-4-fluoro-1H-indol-7-yl)pyrazole-4-sulfonamide]
< 250	250 to 1000	Cc1ccc(NS(=O)(=O)c2cnn(C3CCCC3)c2)c2[nH]cc(C#N)c12 [Compound 88, N-(3-cyano-4-methyl-1H-indol-7-yl)-1-cyclopentyl-pyrazole-4-sulfonamide]
< 250	250 to 1000	CC(CC(C)(C)O)n1cc(S(=O)(=O)Nc2ccc(Cl)c3c(C#N)c[nH]c23)cn1 (centres unmarked) [Compound 243, N-(4-chloro-3-cyano-1H-indol-7-yl)-1-(3-hydroxy-1,3-dimethyl-butyl)pyrazole-4-sulfonamide]
< 250	250 to 1000	COC1CC(n2cc(S(=O)(=O)Nc3ccc(Cl)c4c(C#N)c[nH]c34)cn2)C1 (centres unmarked) [Compound 189, N-(4-chloro-3-cyano-1H-indol-7-yl)-1-(3-methoxycyclobutyl)pyrazole-4-sulfonamide]
< 250	< 250	CCn1cc(S(=O)(=O)Nc2ccc(C)c3c(C#N)c[nH]c23)c(N)n1 [Compound 290, 3-amino-N-(3-cyano-4-methyl-1H-indol-7-yl)-1-ethyl-pyrazole-4-sulfonamide]
< 250	250 to 1000	CC1(Cn2cc(S(=O)(=O)Nc3cccc4c(Cl)c[nH]c34)cn2)CS(=O)(=O)C1 [Compound 45, N-(3-chloro-1H-indol-7-yl)-1-[(3-methyl-1,1-dioxo-thietan-3-yl)methyl]pyrazole-4-sulfonamide]
< 250	< 250	Cn1ncc(S(=O)(=O)Nc2ccc(Cl)c3c(C#N)c[nH]c23)c1F [Compound 122, N-(4-chloro-3-cyano-1H-indol-7-yl)-5-fluoro-1-methyl-pyrazole-4-sulfonamide]
< 250	250 to 1000	C[C@@H](O)[C@H](C)n1cc(S(=O)(=O)Nc2ccc(F)c3c(C#N)c[nH]c23)cn1 [Compound 233, N-(3-cyano-4-fluoro-1H-indol-7-yl)-1-[(1S,2R)-2-hydroxy-1-methyl-propyl]pyrazole-4-sulfonamide]
< 250	250 to 1000	N#Cc1c[nH]c2c(NS(=O)(=O)c3cnn(CC(F)F)c3N)ccc(F)c12 [Compound 279, 5-amino-N-(4-cyano-4-fluoro-1H-indol-7-yl)-1-(2,2-difluoroethyl)pyrazole-4-sulfonamide]
< 250	< 250	Cc1ccc(NS(=O)(=O)c2cnn(C)c2N)c2[nH]nc(C#N)c12 [Compound 304, 5-amino-N-(3-cyano-4-methyl-1H-indazol-7-yl)-1-methyl-pyrazol-4-sulfonamide]
< 250	250 to 1000	N#Cc1c[nH]c2c(NS(=O)(=O)c3cnn(CC4(O)CCC4)c3)ccc(Cl)c12 [Compound 179, N-(4-chloro-3-cyano-1H-indol-7-yl)-1-[(1-hydroxycyclobutyl)methyl]pyrazole-4-sulfonamide]
< 250	< 250	CC1(n2cc(S(=O)(=O)Nc3ccc(Cl)c4c(Cl)c[nH]c34)cn2)COC1 [Compound 115, N-(3,4-Dichloro-1H-indol-7-yl)-1-(3-methyloxetan-3-yl)pyrazole-4-sulfonamide]
< 250	> 1000	CC(C)(CO)n1cc(S(=O)(=O)Nc2ccc(Cl)c3c(C#N)c[nH]c23)c(Cl)n1 [Compound 260, 3-chloro-N-(4-chloro-3-cyano-1H-indol-7-yl)-1-(2-hydroxy-1,1-dimethyl-ethyl)pyrazole-4-sulfonamide]
< 250	< 250	Cc1ccc(NS(=O)(=O)c2cnn(C(C)CCO)c2)c2[nH]cc(C#N)c12 (centres unmarked) [Compound 236, N-(3-cyano-4-methyl-1H-indol-7-yl)-1-(3-hydroxy-1-methyl-propyl)pyrazole-4-sulfonamide]
< 250	< 250	[2H]C([2H])([2H])n1cc(S(=O)(=O)Nc2ccc(Cl)c3c(C#N)c[nH]c23)cn1 [Compound 135, N-(4-chloro-3-cyano-1H-indol-7-yl)-1-(trideuteriomethyl)pyrazole-4-sulfonamide]
< 250	< 250	Cn1ncc(S(=O)(=O)Nc2ccc(Cl)c3c(C#N)c[nH]c23)c1N [Compound 180, 5-amino-N-(4-chloro-3-cyano-1H-indol-7-yl)-1-methyl-pyrazole-4-sulfonamide]
